Data set [1] in a line: Liver microsomal stability in rat liver microsomes. In kind it is in vitro ADME. The settings on record: 0.5 mg protein/mL, 1 μM compound, 37° C. The procedure: Experimental Example 2: Evaluation of Liver Microsomal Stability of Compounds Disclosed Herein
Test samples: the compounds disclosed herein and the compound I-8 of international patent application WO2017019723A1 (prepared by referring to the examples for synthesis in WO2017019723A1) having the following structural formula: […]
An appropriate amount of the compound was precisely weighed out and dissolved in DMSO to prepare a 5.0 mM stock solution. The 5.0 mM stock solution was diluted to 1.0 mM with DMSO, and then diluted with water to 10 μM compound working solution for later use (DMSO content in the reaction system: 0.1% v/v).
• (1) The liver microsomes (20 mg protein/mL) were taken out from a −80° C. refrigerator, pre-incubated on a 37° C. water bath thermostatic oscillator for 3 min, and thawed for use. • (2) A mixed solution of the incubation system (without compound and D-NADPH) was prepared according to “composition of the experimental incubation system” described above, and pre-incubated on a 37° C. water bath thermostatic oscillator for 2 min. • (3) Control group (without D-NADPH): 30 μL of water and 30 μL of compound working solution (10 μM) were added to 240 μL of the mixed solution of the incubation system in step (2), and the mixture was vortexed for 30 s and mixed well; the total volume of the mixture was 300 μL; the sample was duplicated. The mixture was placed on a 37° C. water bath thermostatic oscillator for incubation, and timing was started; the sampling was conducted at 0 min and 60 min. • (4) Sample group: 70 μL of […] solution (10 mM) and 70 μL of compound working solution (10 μM) were added to 560 μL of the mixed solution in step (2), and the total volume of the mixture was 700 μL; the mixture was vortexed for 30 s and mixed well; the sample was duplicated. The mixture was placed on a 37° C. water bath thermostatic oscillator for incubation, and timing was started; the sampling was conducted at 0 min, 5 min, 10 min, 20 min, 30 min and 60 min. • (5) The mixture was vortexed for 3 min, and centrifuged at 4000 rpm for 10 min. • (6) 50 μL of the supernatant was taken and added to 150 μL of water, and the resulting mixture was vortexed and mixed well before LC/MS/MS analysis.
The half-life (t1/2) and clearance (Cl) were calculated using the following first-order kinetic formula:
Vd=1/protein content in liver microsomes
Note: k denotes the slope of the logarithm of the remaining amount of a compound vs. time, Vd denotes apparent volume of distribution, and C0 denotes compound concentration at 0 h.
Experiment on Stability of the Compounds Disclosed Herein in Rat Liver Microsomes
In general terms: Microsomes from liver hold many membrane-bound enzymes, among them those of drug oxidation.

The target in the next data set is T1, PDE9A2 enzyme (Homo sapiens, UniProt O76083).
T1 construct: purchased BPS 60090
Kind of data set: PDE9 enzymatic evaluation. In kind it is biochemical. As to conditions: fluorescence reading 480 nm/535 nm. The procedure: Experimental Example 1: PDE9 Enzymatic Evaluation
Test samples: the compounds disclosed herein, prepared according to the corresponding examples of the present invention.
Preparation of the compounds: Compounds were formulated into 10 mM compound stock solution in DMSO for long term storage. The obtained compound stock solution was 100-fold diluted with DMSO to give 100 μM compound mother liquor, which was 3-fold diluted with DMSO to give 8-10 concentration gradients of diluted compound mother liquor (100×).
Incubation with compound: Diluted compound mother liquor was pipetted into a 384-well plate using an ultramicro-liquid pipetting system (Echo); 200 nL of the diluted compound mother liquor and 10 μL of PDE9A2 enzyme solution were added to each compound well; after centrifugation at 1000 rpm for 1 min, the mixtures were incubated at room temperature for 15 min. Subsequently, 10 μL of the substrate mixture was added, and after centrifugation at 1000 rpm for 1 min, the resulting mixture was incubated at room temperature with oscillating for 30 min. Finally, stop solution was added to end the reaction, and the resulting reaction system was incubated at room temperature with oscillating for 60 min. In the maximum reading well (Max), the compound was replaced by solvent; in the minimum reading well (Min), the compound and the enzyme solution were replaced by solvent.
Detection: the fluorescence readings (F) at 480 nm/535 nm were detected using a microplate reader.
Calculation: The inhibition rate was calculated according to the following formula and IC50 was fitted using GraphPad Prism 5.0: […]

Data set [2] has as its target T2, human PDE9 (Homo sapiens, UniProt O76083). As to conditions: background statement; cited from earlier work.
The target of data set [3] is T2, human PDE9. The settings on record: substrate of PDE9, background statement; read-out: binding constant (Km); cited from earlier work.

Structures are written as SMILES.

T2 sequence (O76083 whole entry): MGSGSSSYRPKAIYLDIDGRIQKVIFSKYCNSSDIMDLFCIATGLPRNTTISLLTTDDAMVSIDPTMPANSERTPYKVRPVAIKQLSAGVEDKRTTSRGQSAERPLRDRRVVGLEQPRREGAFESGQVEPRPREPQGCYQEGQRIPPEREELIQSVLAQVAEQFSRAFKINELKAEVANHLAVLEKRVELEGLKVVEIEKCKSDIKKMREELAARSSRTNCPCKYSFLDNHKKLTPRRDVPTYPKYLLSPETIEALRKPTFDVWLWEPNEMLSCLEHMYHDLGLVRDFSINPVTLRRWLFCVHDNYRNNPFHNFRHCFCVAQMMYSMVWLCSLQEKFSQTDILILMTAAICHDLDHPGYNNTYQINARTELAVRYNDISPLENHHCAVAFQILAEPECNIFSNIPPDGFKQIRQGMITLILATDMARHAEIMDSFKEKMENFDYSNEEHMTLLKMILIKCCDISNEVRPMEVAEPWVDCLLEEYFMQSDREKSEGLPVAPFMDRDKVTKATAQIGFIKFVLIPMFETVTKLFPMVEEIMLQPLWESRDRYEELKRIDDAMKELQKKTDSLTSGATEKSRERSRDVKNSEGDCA
T1 sequence (O76083 1-533 isoform O76083-2): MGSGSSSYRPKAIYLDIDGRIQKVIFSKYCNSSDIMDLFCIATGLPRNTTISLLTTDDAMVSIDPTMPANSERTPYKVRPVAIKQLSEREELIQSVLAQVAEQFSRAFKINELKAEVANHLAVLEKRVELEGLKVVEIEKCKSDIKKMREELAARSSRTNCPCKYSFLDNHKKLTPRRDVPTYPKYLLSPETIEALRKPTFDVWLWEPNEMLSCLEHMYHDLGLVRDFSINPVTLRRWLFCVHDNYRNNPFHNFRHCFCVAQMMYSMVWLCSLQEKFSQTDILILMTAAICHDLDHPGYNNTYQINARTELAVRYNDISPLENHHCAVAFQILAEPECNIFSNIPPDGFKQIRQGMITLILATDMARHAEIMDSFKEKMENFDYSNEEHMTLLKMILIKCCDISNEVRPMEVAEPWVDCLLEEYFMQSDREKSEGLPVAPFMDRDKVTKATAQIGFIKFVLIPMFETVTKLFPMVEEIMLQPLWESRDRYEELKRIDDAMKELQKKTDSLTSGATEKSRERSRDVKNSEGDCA

What is called half-life is the time in which the quantity being followed falls by half. Read a high half-life as slow loss. As a reminder, the microsomal CLint is the rate of metabolic loss divided by the concentration. Low readings indicate slow turnover, high ones rapid turnover. As usually defined, the IC50 is the concentration that inhibits the measured activity by half. Take `CNC(=O)c1ccc2[nH]c(=O)c(C#N)c(N3CCC4(CC3)CC4)c2c1` [Compound 96, 3-cyano-N-methyl-2-oxo-4-(6-azaspiro[2.5]octan-6-yl)-1,2-dihydroquinoline-6-carboxamide]: in data set [1], the half-life at 1 μM amounted to 3.22 h and the microsomal CLint at 1 μM stood at 7.2 µL/min/mg. Moreover, at PDE9A2 enzyme, the half-inhibitory concentration (IC50) amounted to 5 nM.

As for `N#Cc1c(N2CCCCCC2)c2ccccc2[nH]c1=O` [Compound I-8, reference compound], in data set [1], the half-life at 1 μM worked out at 0.792 h and the intrinsic clearance (microsomal CLint) at 1 μM was determined as 29.2 µL/min/mg.

`COC1(C)CCN(c2c(C#N)c(=O)[nH]c3ccc(C(C)(C)O)cc23)CC1` [Compound 109, 6-(2-hydroxypropan-2-yl)-4-(4-methoxy-4-methylpiperidin-1-yl)-2-oxo-1,2-dihydroquinoline-3-carbonitrile]: in data set [1], the half-life at 1 μM stood at 7.7 h and the intrinsic clearance (microsomal CLint) at 1 μM came out at 3 µL/min/mg. Besides, on PDE9A2 enzyme, half-maximal inhibition (IC50) required 15 nM.

On to `COC1(C)CCN(c2c(C#N)c(=O)[nH]c3ccc(C(O)C4CC4)cc23)CC1` (centres unmarked) [Compound 130, 6-(cyclopropyl(hydroxy)methyl)-4-(4-methoxy-4-methylpiperidin-1-yl)-2-oxo-1,2-dihydroquinoline-3-carbonitrile], for which, in data set [1], the half-life at 1 μM was determined as 2.82 h and the microsomal CLint at 1 μM came out at 8.2 µL/min/mg. Also, on PDE9A2 enzyme, the IC50 stood at 2 nM.

On to `CC(C)Cn1c(=O)n(C)c(=O)c2[nH]cnc21` [IBMX], for which the “inhibitory activity against PDE9” value at human PDE9 [2] is given as “no inhibitory activity or low inhibitory activity”.

On to `COCCOc1ccc2[nH]c(=O)c(C#N)c(N3CCC(C)(OC)CC3)c2c1` [Compound 145, 4-(4-methoxy-4-methylpiperidin-1-yl)-6-(2-methoxyethoxy)-2-oxo-1,2-dihydroquinoline-3-carbonitrile], for which, in data set [1], the half-life at 1 μM is 2.13 h and the intrinsic clearance (microsomal CLint) at 1 μM turned out to be 10.8 µL/min/mg. Besides, 12 nM corresponded to half-maximal inhibition on PDE9A2 enzyme (IC50).

With `OCCN(CCO)c1nc(N2CCCCC2)c2nc(N(CCO)CCO)nc(N3CCCCC3)c2n1` [dipyridamole], at human PDE9 [2], the “inhibitory activity against PDE9” value is “no inhibitory activity or low inhibitory activity”.

Regarding `CCOC(=O)C1=C[C@]2(CC)CCCN3CCc4c(n1c1ccccc41)[C@@H]32` [vinpocetine], the “inhibitory activity against PDE9” value on human PDE9 [2] is given as “no inhibitory activity or low inhibitory activity”.

As to `CCc1ccc2[nH]c(=O)c(C#N)c(N3CCC(C)(OC)CC3)c2c1` [Compound 107, 6-ethyl-4-(4-methoxy-4-methylpiperidin-1-yl)-2-oxo-1,2-dihydroquinoline-3-carbonitrile], on PDE9A2 enzyme, the IC50 stood at 8 nM.

`COC1(C)CCN(c2c(C#N)c(=O)[nH]c3ccc(C(C)C)cc23)CC1` [Compound 179, 6-isopropyl-4-(4-methoxy-4-methylpiperidin-1-yl)-2-oxo-1,2-dihydroquinoline-3-carbonitrile] gave an IC50 at PDE9A2 enzyme of 18 nM. This IC50 is about 2.2-fold higher than that of the molecule before.

With `COC1(C)CCN(c2c(C#N)c(=O)[nH]c3ccc(Br)cc23)CC1` [Compound 180, 6-bromo-4-(4-methoxy-4-methylpiperidin-1-yl)-2-oxo-1,2-dihydroquinoline-3-carbonitrile], in data set [1], the half-life at 1 μM is 0.955 h and the intrinsic metabolic clearance (microsomal CLint) at 1 μM is 24.2 µL/min/mg. The same molecule came in with an IC50 on PDE9A2 enzyme of 8 nM.

With `COc1ccc(C2CNC(=O)C2)cc1OC1CCCC1` (centres unmarked) [rolipram], the “inhibitory activity against PDE9” value at human PDE9 [2] was “no inhibitory activity or low inhibitory activity”.

In the case of `CC(=O)Nc1ccc(-c2c[nH]c(=O)cn2)cc1` [SKF94120], the “inhibitory activity against PDE9” value at human PDE9 [2] is given as “no inhibitory activity or low inhibitory activity”.

Broadly, the Km is the substrate concentration at which the rate is half of its maximum. As to `Nc1nc2c(ncn2[C@@H]2O[C@@H]3COP(=O)(O)O[C@H]3[C@H]2O)c(=O)[nH]1` [cGMP, cyclic guanosine monophosphate], at human PDE9 [3], the Km was 0.17 µM.

`COC1(C)CCN(c2c(C#N)c(=O)[nH]c3ccc(C)cc23)CC1` [Compound 158, 4-(4-methoxy-4-methylpiperidin-1-yl)-6-methyl-2-oxo-1,2-dihydroquinoline-3-carbonitrile] registered a concentration for half-maximal inhibition (IC50) against PDE9A2 enzyme of 12 nM.
